The record followed here is patent US9169217B2, “Arylalkyl esters of 4-amino-6-(substituted phenyl)-picolinates and 6-amino-2-(substituted phenyl)-pyrimidinecarboxylates and their use as selective herbicides for crops” (Dow AgroSciences LLC, priority 2011, dated 2015).

For data set [1], the system named is Echinochloa colonum (L.) LINK (junglerice). Kind of data set: Postemergence foliar-applied herbicidal activity in direct seeded rice (Example 16). It counts as in vivo. To be noted: Echinochloa colona, post-emergence, 504 h, rice cropping systems, 8.75 g ae/ha, 21 DAA, may represent multiple trials, read-out: Visual Injury (%) ECHCO. From the text: (§1) Seeds or nutlets of the desired test plant species were planted in a soil matrix prepared by mixing a loam soil (43 percent silt, 19 percent clay, and 38 percent sand, with a pH of about 8.1 and an organic matter content of about 1.5 percent) and river sand in an 80 to 20 ratio. The soil matrix was contained in plastic pots with a surface area of 139.7 cm^2. When required to ensure good germination and healthy plants, a fungicide treatment and/or other chemical or physical treatment was applied. The plants were grown for 10-17 d in a greenhouse with an approximate 14-h photoperiod which was maintained at about 29° C. during the day and 26° C. during the night. Nutrients and water were added on a regular basis and supplemental lighting was provided with overhead metal halide 1000-Watt lamps as necessary. The plants were employed for testing when they reached the second or third true leaf stage.
(§2) Treatments consisted of esters of compounds 1-4, 6-8, 10, 11, 13-16, 20-31, 35, 38, 41 and 42 and A-E. Compound A is methyl 4-amino-3-chloro-6-(4-chloro-3-ethoxy-2-fluorophenyl)-5-fluoropicolinate; compound B is methyl 4-amino-3-chloro-6-(4-cyclopropylphenyl)-5-fluoropicolinate; compound C is methyl 4-amino-3-chloro-6-(2,4-dichloro-3-methoxyphenyl)picolinate; compound D is methyl 6-amino-2-(4-chloro-2-fluoro-3-methoxyphenyl)-5-vinylpyrimidine-4-carboxylate; and compound E is methyl 4-amino-3-chloro-6-(4-chloro-2-fluoro-3-methoxyphenyl)-5-fluoropicolinate. Weighed amounts of technical grade compounds were placed in 25 mL glass vials and dissolved in a volume of 97:3 v/v acetone-DMSO to obtain 12× stock solutions. […] The concentrated stock solutions were added to the spray solutions so that the final acetone and DMSO concentrations were 16.2% and 0.5%, respectively. Spray solutions were diluted to the appropriate final concentrations with the addition of 10 mL of an aqueous mixture of 1.5% (v/v) Agri-dex crop oil concentrate. Generally, multiple concentrations of spray solutions were formulated and tested utilizing the same stock solution. The final spray solutions contained 1.25% (v/v) Agri-dex crop oil concentrate. Compound requirements are based upon a 12 mL application volume at a rate of 187 L/ha. Spray solutions were applied to the plant material with an overhead Mandel track sprayer equipped with 8002E nozzles calibrated to deliver 187 L/ha over an application area of 0.503 square meters (m^2) at a spray height of 18 inches (43 cm) above average plant canopy height. Control plants were sprayed in the same manner with the solvent blank.
(§3) The treated plants and control plants were placed in a greenhouse as described above and watered by sub-irrigation to prevent wash-off of the test compounds. After 3 weeks, the condition of the test plants, compared with that of the untreated plants, was determined visually and scored on a scale of 0 to 100 percent where 0 corresponds to no injury and 100 corresponds to complete kill.
(§4) By applying the well-accepted probit analysis as described by J. Berkson in Journal of the American Statistical […], 48, 565 (1953) and by D. Finney in “Probit Analysis” Cambridge University Press (1952), the data gathered can be used to calculate GR50 and GR80 values, which are defined as growth reduction factors that correspond to the effective dose of herbicide required to kill or control 50 percent or 80 percent, respectively, of a target plant.

In data set [2] the test system is Echinochloa crus-galli (L.) P.BEAUV. (barnyardgrass). Described as above. To be noted: rice cropping systems, 8.75 g ae/ha, 21 DAA, may represent multiple trials. It counts as in vivo.
Description: as §1, §2, §3, §4

The test system is the same in data set [3]. Kind of data set: In-water applied herbicidal activity in transplanted paddy rice (Example 17). It counts as in vivo. To be noted: Echinochloa crus-galli, 504 h; rice cropping systems, in-water applied (paddy), 35 g ae/ha, 21 DAA; may represent multiple trials; read-out: Visual Injury (%) ECHCG. The method, then:
(§5) Weed seeds or nutlets of the desired test plant species were planted in puddled soil (mud) prepared by mixing a non-sterilized mineral soil (28 percent silt, 18 percent clay, and 54 percent sand, with a pH of about 7.3 to 7.8 and an organic matter content of about 1.0 percent) and water at a ratio of 100 kilograms (kg) of soil to 19 liters (L) of water. The prepared mud was dispensed in 250 mL aliquots into 480 mL non-perforated plastic pots with a surface area of 91.6 cm^2 leaving a headspace of 3 cm in each pot. Rice seeds were planted in Sun Gro MetroMix 306 planting mixture, which typically has a pH of 6.0 to 6.8 and an organic matter content of about 30 percent, in plastic plug trays. Seedlings at the second or third leaf stage of growth were transplanted into 650 mL of mud contained in 960 mL non-perforated plastic pots with a surface area of 91.6 cm^2 four days prior to herbicide application. The paddy was created by filling the 3 cm headspace of the pots with water. When required to ensure good germination and healthy plants, a fungicide treatment and/or other chemical or physical treatment was applied. The plants were grown for 4-14 d in a greenhouse with an approximate 14-h photoperiod which was maintained at about 29° C. during the day and 26° C. during the night. Nutrients were added as Osmocote (17:6:10, Nitrogen:Phosphorus:Potassium (N:P:K)+minor nutrients) at 2 grams (g) per cup. Water was added on a regular basis to maintain the paddy flood, and supplemental lighting was provided with overhead metal halide 1000-Watt lamps as necessary. The plants were employed for testing when they reached the second or third true leaf stage.
(§6) Treatments consisted of esters of compounds 1-4, 6-33, 35-39, 41 and 42 and A-G. Compound A is methyl 4-amino-3-chloro-6-(4-chloro-3-ethoxy-2-fluorophenyl)-5-fluoropicolinate; compound B is methyl 4-amino-3-chloro-6-(4-cyclopropylphenyl)-5-fluoropicolinate; compound C is methyl 4-amino-3-chloro-6-(2,4-dichloro-3-methoxyphenyl)picolinate; compound D is methyl 6-amino-2-(4-chloro-2-fluoro-3-methoxyphenyl)-5-vinylpyrimidine-4-carboxylate; compound E is methyl 4-amino-3-chloro-6-(4-chloro-2-fluoro-3-methoxyphenyl)-5-fluoropicolinate; compound F is methyl 6-amino-2-(4-chloro-2-fluoro-3-methoxyphenyl)-5-methoxypyrimidine-4-carboxylate; and compound G is methyl 4-amino-3-chloro-6-(4-chloro-2-fluoro-3-methoxyphenyl)picolinate. Weighed amounts of technical grade compounds were placed in individual 120 mL glass vials and were dissolved in 20 mL of acetone to obtain concentrated stock solutions. […] The concentrated stock solutions obtained were diluted with 20 mL of an aqueous mixture containing 2.5% Agri-dex crop oil concentrate (v/v). The final application solutions contained 1.25% (v/v) Agri-dex crop oil concentrate. Generally, multiple concentrations were tested utilizing the same stock solution. Applications were made by injecting an appropriate amount of the application solution into the aqueous layer of the paddy. Control plants were treated in the same manner with the solvent blank.
(§7) The treated plants and control plants were placed in a greenhouse as described above and water was added as needed to maintain a paddy flood. After 3 weeks the condition of the test plants, compared with that of the untreated plants, was determined visually and scored on a scale of 0 to 100 percent where 0 corresponds to no injury and 100 corresponds to complete kill.
as §4

Data set [4] deals with Cyperus rotundus L. (purple nutsedge). The description is as above. Conditions: rice cropping systems, 35 g ae/ha, 21 DAA, may represent multiple trials. It counts as in vivo. The method, then: as §5, §6, §7, §4
For data set [5], the system named is Brachiaria platyphylla (GRISEB.) NASH (broadleaf signalgrass). Kind of data set: Postemergence foliar-applied herbicidal activity in direct seeded rice (Example 16). It counts as in vivo. To be noted: rice cropping systems, 8.75 g ae/ha, 21 DAA, may represent multiple trials.
Description: as §1, §2, §3, §4

For data set [6], the system named is Cyperus difformis L. (small-flower flatsedge). Described as above. The format is in vivo. To be noted: post-emergence, 504 h, rice cropping systems, foliar-applied, 8.75 g ae/ha, 21 DAA, may represent multiple trials, read-out: Visual Injury (%) CYPDI.
Description: as §1, §2, §3, §4

Data set [7] relates to Scirpus juncoides ROXB. (Japanese bulrush). The data set is described as above. To be noted: Schoenoplectiella juncoides, post-emergence, 504 h; rice cropping systems, foliar-applied, 8.75 g ae/ha, 21 DAA; may represent multiple trials; read-out: Visual Injury (%) SCPJU. The format is in vivo.
Description: as §1, §2, §3, §4

For data set [8] the test system is unchanged. Kind of data set: In-water applied herbicidal activity in transplanted paddy rice (Example 17). The format is in vivo. Conditions: Schoenoplectiella juncoides, 504 h; rice cropping systems, in-water applied (paddy), 35 g ae/ha, 21 DAA; may represent multiple trials; read-out: Visual Injury (%) SCPJU. The method, then:
as §5, §6, §7, §4

For data set [9], the system named is Fimbristylis miliacea (L.) VAHL (globe fringerush). The data set is described as above. It counts as in vivo. Conditions: rice cropping systems, in-water applied (paddy), 35 g ae/ha, 21 DAA; may represent multiple trials. The method, then:
as §5, §6, §7, §4

Regarding `C=Cc1c(N)nc(-c2ccc(Cl)c(OC)c2F)nc1C(=O)OC` [D, methyl 6-amino-2-(4-chloro-2-fluoro-3-methoxyphenyl)-5-vinylpyrimidine-4-carboxylate, reference compound], the pest or weed control at 8.75 g/ha in [1] was 79%. The “Visual Injury (%) ECHCG” value in [2] was 87%. In addition, the pest or weed control at 35 g/ha in data set [3] came out at 54%.
Turning to `COc1c(Cl)ccc(-c2cc(N)c(Cl)c(C(=O)OCc3ccc(Cl)cc3Cl)n2)c1F` [Compound 17, 2,4-dichlorobenzyl 4-amino-3-chloro-6-(4-chloro-2-fluoro-3-methoxyphenyl)picolinate], in data set [4], the “Visual Injury (%) CYPRO” value is reported as 100%. The pest or weed control at 35 g/ha in data set [3] was 98%.
Consider `C=Cc1c(N)nc(-c2ccc(Cl)c(OC)c2F)nc1C(=O)OCc1ccccc1` [Compound 35, benzyl 6-amino-2-(4-chloro-2-fluoro-3-methoxyphenyl)-5-vinylpyrimidine-4-carboxylate], for which the melting point lay within 119 to 121 °C. In data set [1], the pest or weed control at 8.75 g/ha came out at 90%. Besides, the “Visual Injury (%) ECHCG” value in data set [2] was 95%. For the same molecule, the pest or weed control at 35 g/ha in data set [3] is 76%.
`COC(=O)c1nc(-c2ccc(Cl)c(OC)c2Cl)cc(N)c1Cl` [Compound C, methyl 4-amino-3-chloro-6-(2,4-dichloro-3-methoxyphenyl)picolinate, reference compound]: the “Visual Injury (%) BRAPP” value in [5] turned out to be 74%. Also, the pest or weed control at 8.75 g/ha turned out to be 96% in [6], 84% in data set [1] and 90% in [7]. The values for the pest or weed control at 35 g/ha in data set [3] and in data set [8] were 36% and 83%, respectively.
On to `COc1ccc(COC(=O)c2nc(-c3ccc(Cl)c(OC)c3F)cc(N)c2Cl)cc1` [Compound 36, 4-methoxybenzyl 4-amino-3-chloro-6-(4-chloro-2-fluoro-3-methoxyphenyl)picolinate], for which the “Visual Injury (%) FIMMI” value in [9] is given as 100%.
For `COc1c(Cl)ccc(-c2cc(N)c(Cl)c(C(=O)OCc3ccccc3)n2)c1Cl` [Compound 38, benzyl 4-amino-3-chloro-6-(2,4-dichloro-3-methoxyphenyl)-picolinate], the “Visual Injury (%) BRAPP” value in data set [5] is recorded as 90%. In addition, the values for the pest or weed control at 8.75 g/ha in [6], in data set [1] and in data set [7] were 100%, 90% and 100%, respectively. Also, the pest or weed control at 35 g/ha in data set [3] was 99%; in data set [8], 100%.

A word on the melting point: it is the temperature of the solid-liquid transition.
